Results published in the NIST ThermoML archive (doi:10.1016/j.tca.2016.11.017).
± gives the expanded uncertainty stated by the source.

Experiments:
[1] = for Normal melting temperature: DTA; for mass density: 103 K, 101.33 kPa, X-ray diffraction
[2] = Molar enthalpy of transition or fusion; details: DSC

Row | SMILES | Normal melting temperature ([1]; Crystal) | Molar enthalpy of transition or fusion ([2]; Crystal) | mass density ([1]; Crystal) | Normal melting temperature ([1]; Crystal 1) | Normal melting temperature ([1]; Crystal 2) | Molar enthalpy of transition or fusion ([2]; Crystal 1) | Molar enthalpy of transition or fusion ([2]; Crystal 2)
1 | COC(C(=O)O)c1ccccc1 (configuration not stated) [2-methoxy-2-phenylacetic acid] | 70.60 ± 0.5 °C | 6 ± 1.2 kcal/mol |  |  |  |  | 
2 | CO[C@H](C(=O)O)c1ccccc1 [(S)-2-methoxy-2-phenylacetic acid] | 69.30 ± 0.5 °C | 4.51 ± 0.908 kcal/mol | 1311 ± 7 kg/m3 |  |  |  | 
3 | CO[C@H](C(=O)[O-])c1ccccc1.C[C@H]([NH3+])C1CCCCC1 |  |  | 1149 ± 6 kg/m3 | 162.90 ± 0.5 °C | 166.30 ± 0.5 °C | 7.31 ± 1.48 kcal/mol | 9.16 ± 1.84 kcal/mol
4 | CO[C@H](C(=O)[O-])c1ccccc1.C[C@@H]([NH3+])C1CCCCC1 | 187.40 ± 0.5 °C | 10.9 ± 2.2 kcal/mol |  |  |  |  | 
